According to patent publication US20130164228A1, “COMPOSITIONS COMPRISING GALLATES AND GALLAMIDES” (Colgate-Palmolive Company, priority 2011, published 2013):
Each block holds one compound with its values, some of them ahead of it.

How the values were obtained:
[1] = test system: LL-37 release from human gingival epithelial cells; assay: Induction of anti-microbial peptides: LL-37 ELISA of supernatants; assay type: cell-based; conditions: for LL-37 (ng/ml) at 0.05% after 16 hrs: 0.05% test compound; for LL-37 (ng/ml) at 0.1% after 4 hrs: 0.1% test compound
[2] = test system: β-defensin release from human gingival epithelial cells; assay: Induction of anti-microbial peptides: β-defensin ELISA of supernatants; assay type: cell-based; conditions: 0.1% test compound
[3] = Stability/discoloration of THDG and CHDG (neat, solution, saliva, dentifrice); assay type: physicochemical; conditions: for stability in saliva (discoloration): 24 h at 37° C., subject specific, saliva pH 6.5-8; for discoloration in dentifrice, CDC base: in 2 weeks; for Stability of neat materials: neat powders; for discoloration of solutions in DMSO/water: pH 6.1-6.5, after 4M at RT; for discoloration in dentifrice, silica base: in 1 week
[4] = Vitro-Skin assay of potential uptake in skin; assay type: in vitro ADME
Text: Using a commercial Vitro-Skin® assay to measure potential uptake in skin, we see uptake from all the formulations, but have better uptake in the Dical formulation than in the silica/SLS formulation (units in micrograms/cm^2): • 0.2% THDG/CDC: 4.9 • 0.2% THDG/HSLS: 0.6 • 0.2% CHDG/CDC: 4.4 • 0.2% CHDG/[…] • 0.3% Triclosan (positive control): 7.7

[5] = test system: Actinomyces viscosus (ATCC # 43146); assay: Antibacterial growth inhibition (GI) assay; assay type: cell-based; conditions: 100 ppm, OD610 at 2, 4, 6, 24 h
Protocol: An overnight culture of Actinomyces viscosus (ATCC # 43146) is diluted to an OD610˜0.2 in sterile trypticase soy broth (TSB) Nine mls of diluted Actinomyces viscosus is added to triplicate 15 mls sterile culture tubes for each sample or control tested. One ml of each analog was added to the corresponding culture tube and briefly vortexed. Cultures are incubated at 37° C. in a shaking water bath. Supernatants are removed at 2, 4, 6, and 24 h and the OD610 read. Results from triplicate samples were averaged and growth is plotted as a function of time.

LL-37 production = conditions: natural products with only one 1,2,3-trihydroxybenzene ring; cited from earlier work

- discoloration in dentifrice, CDC base ([3]; CDC base): slight discoloration
- Stability of neat materials [3]: short term shelf stability acceptable
- discoloration of solutions in DMSO/water [3]: no discoloration
- discoloration in dentifrice, silica base ([3]; silica base): moderate discoloration
- uptake in Vitro-Skin from CDC formulation ([4]; 0.2 %): 4.9 micrograms/cm^2
- uptake in Vitro-Skin from HSLS formulation ([4]; 0.2 %): 0.6 micrograms/cm^2
Compound: O=C(O[C@@H]1CCCC[C@H]1OC(=O)c1cc(O)c(O)c(O)c1)c1cc(O)c(O)c(O)c1 (relative stereo) [THDG, trans-1,2 cyclohexanediol digallate]
- LL-37 (ng/ml) at 0.05% after 16 hrs [1]: 5900 ng/mL
- LL-37 (ng/ml) at 0.1% after 4 hrs [1]: 4100 ng/mL
- β-defensin (ng/ml) at 0.1% after 4 hrs [2]: 280 ng/mL
- stability in saliva (discoloration) [3]: no discoloration to deep green discoloration

Compound: O=C(N[C@@H]1CCCC[C@H]1NC(=O)c1cc(O)c(O)c(O)c1)c1cc(O)c(O)c(O)c1 (relative stereo) [THDGA, trans-1,2-cyclohexane digallamide]
- LL-37 (ng/ml) at 0.05% after 16 hrs [1]: 130 ng/mL
- LL-37 (ng/ml) at 0.1% after 4 hrs [1]: 100 ng/mL
- β-defensin (ng/ml) at 0.1% after 4 hrs [2]: 1.5 ng/mL

Compound: CCCCOC(=O)c1cc(O)c(O)c(O)c1 [BG]
- LL-37 (ng/ml) at 0.05% after 16 hrs [1]: 50 ng/mL
- LL-37 (ng/ml) at 0.1% after 4 hrs [1]: 100 ng/mL
- β-defensin (ng/ml) at 0.1% after 4 hrs [2]: 0 ng/mL

- discoloration in dentifrice, CDC base ([3]; CDC base): slight discoloration
- Stability of neat materials [3]: short term shelf stability acceptable
- discoloration of solutions in DMSO/water [3]: no discoloration
- discoloration in dentifrice, silica base ([3]; silica base): moderate discoloration
Compound: O=C(O[C@H]1CCCC[C@H]1OC(=O)c1cc(O)c(O)c(O)c1)c1cc(O)c(O)c(O)c1 [CHDG, cis-1,2-cyclohexanediol digallate]
- LL-37 (ng/ml) at 0.05% after 16 hrs [1]: 3700 ng/mL
- LL-37 (ng/ml) at 0.1% after 4 hrs [1]: 5200 ng/mL
- β-defensin (ng/ml) at 0.1% after 4 hrs [2]: 150 ng/mL
- stability in saliva (discoloration) [3]: no discoloration to deep green discoloration

Compound: O=C(N[C@H]1CCCC[C@H]1NC(=O)c1cc(O)c(O)c(O)c1)c1cc(O)c(O)c(O)c1 [CHDGA, cis-1,2-cyclohexane digallamide]
- LL-37 (ng/ml) at 0.05% after 16 hrs [1]: 120 ng/mL
- LL-37 (ng/ml) at 0.1% after 4 hrs [1]: 100 ng/mL
- β-defensin (ng/ml) at 0.1% after 4 hrs [2]: 0.7 ng/mL

Compound: O=C(O[C@H]1CCC[C@H]1OC(=O)c1cc(O)c(O)c(O)c1)c1cc(O)c(O)c(O)c1 [CPDG, cis-1,2-cyclopentanediol digallate]
- LL-37 (ng/ml) at 0.05% after 16 hrs [1]: 160 ng/mL
- LL-37 (ng/ml) at 0.1% after 4 hrs [1]: 120 ng/mL
- β-defensin (ng/ml) at 0.1% after 4 hrs [2]: 0.5 ng/mL

- time to discoloration in dentifrice, CDC base ([3]; CDC base): 2 days
- time to discoloration of solution in DMSO/water ([3]; same conditions: DMSO/water, RT): < 1 week
- time to discoloration in dentifrice, silica base ([3]; silica base): 2 days
Compound: O=C(O[C@@H]1Cc2c(O)cc(O)cc2O[C@@H]1c1cc(O)c(O)c(O)c1)c1cc(O)c(O)c(O)c1 [EGCG, epigallocatechin gallate, reference compound]
- antibacterial activity in bacterial culture [5]: modest antibacterial activity
- LL-37 (ng/ml) at 0.05% after 16 hrs ([1]; listed as EGCG (source Kenko)): 15 ng/mL
- LL-37 (ng/ml) at 0.05% after 16 hrs ([1]; listed as EGCG (source TeaVigo)): 20 ng/mL
- LL-37 (ng/ml) at 0.1% after 4 hrs [1]: 160 ng/mL
- β-defensin (ng/ml) at 0.1% after 4 hrs [2]: 4.3 ng/mL

- uptake in Vitro-Skin, positive control ([4]; 0.3% Triclosan): 7.7 micrograms/cm^2
Compound: Oc1cc(Cl)ccc1Oc1ccc(Cl)cc1Cl [Triclosan, triclosan, reference compound]

Compound: Oc1cc(O)c2c(c1)O[C@H](c1cc(O)c(O)c(O)c1)[C@H](O)C2 [epigallocatechin]
- potency in LL-37 production compared with EGCG (LL-37 production): significantly less potent

Compound: catechin gallate
- potency in LL-37 production compared with EGCG (LL-37 production): significantly less potent
